Article PMC6783499, “Heteroglycoclusters With Dual Nanomolar Affinities for the Lectins LecA and LecB From Pseudomonas aeruginosa” (Frontiers in Chemistry, 2019)

Molecular target: T1, LecB (Pseudomonas aeruginosa, UniProt Q9HYN5)
T1 construct: made in house; host or cells: Escherichia coli BL21(DE3)
Assay: biochemical
Assay type: binding
Conditions: for n (stoichiometry, glycocluster molecules per lectin monomer): pH 7.5; for –ΔG / –ΔH / −TΔS: per mole of glycocluster; for α (relative potency compared to the monovalent compound) / β (relative potency per sugar unit): relative to αFuc-OMe
Method: The resulting hGCs were tested in solution with lectins by Isothermal Titration Calorimetry (Table 1) and their binding properties were compared with homoclusters 15–20 (Berthet et al., [2013]; Thomas et al., [2015b]) displaying either 4 and 16 βGal or αFuc units attached with an oxime or a triazole linker (Figure 3). […] Experiments were performed in direct injection mode (i.e., ligand in syringe and protein in cell) to minimize aggregation problems.
All chemical reagents were purchased from Aldrich (Saint Quentin Fallavier, France) or Acros (Noisy-Le-Grand, France). All protected amino acids and Fmoc-Gly-Sasrin® resin was obtained from Advanced ChemTech Europe (Brussels, Belgium). For peptides and glycopeptides, analytical RP-HPLC was performed on Waters system equipped with a Waters 2695 separations module and a Waters 2487 Dual Absorbance UV/Visible Detector. Analysis was carried out at 1.0 mL/min (EC 125/3 nucleosil 300-5 C18) with UV monitoring at 214 nm and 250 nm using a linear A–B gradient (buffer A: 0.09% CF3CO2H in water; buffer B: 0.09% CF3CO2H in 90% acetonitrile). Purifications were carried out at 22.0 mL/min (VP 250/21 nucleosil 100-7 C18) with UV monitoring at 214 nm and 250 nm using a linear A–B gradient. HRMS and ESI-MS and HRMS spectra of peptides and glycopeptides were measured on an Esquire 3000 spectrometer from Bruker. Lectins LecA and LecB were produced in recombinant form in Escherichia coli BL21(DE3) as described previously (Mitchell et al., [2005]; Blanchard et al., [2008]).
Other compounds were assayed with a VP-ITC isothermal titration calorimeter (Microcal). The experiments were carried out at 25°C. All glycocompounds and lectins LecB and LecA were dissolved in the same buffer composed of 20 mM Tris with 100 mM NaCl and 0.1 mM CaCl2 at pH 7.5. For PEAQ-ITC, the lectins were placed in the microcalorimeter cell (200 μL) at concentrations varying from 35 to 70 μM. […] For VP-ITC, the microcalorimeter cell (1.447 mL) contained the lectins with concentrations between 30 and 100 μM. A total of 30 injections of 10 μL were performed intervals of 5 min while stirring at 310 rpm with glycoclusters concentrations varying from […]. The experimental data were fitted to a theoretical titration curve using the Microcal PEAQ-ITC analysis software, with ΔH (enthalpy change), Ka (association constant), and N (number of binding sites per monomer) as adjustable parameters. Dissociation constant (Kd), free energy change (ΔG), and entropy contributions (TΔS) were derived from the previous ones. Two or three independent titrations were performed for each ligand tested.

[1] = ITC, 25°C, 20 mM Tris, 100 mM NaCl, 0.1 mM CaCl2, pH 7.5, ligand in syringe

T1 sequence (Q9HYN5 entry or part of it): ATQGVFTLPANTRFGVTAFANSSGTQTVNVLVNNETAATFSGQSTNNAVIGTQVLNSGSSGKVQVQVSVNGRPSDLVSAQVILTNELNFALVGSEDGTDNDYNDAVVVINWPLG

Row | SMILES | –ΔH (binding enthalpy) (ITC) [kJ/mol] | n (stoichiometry, glycocluster molecules per lectin monomer) (ITC, 25°C) | –ΔG (ITC, 25°C) [kJ/mol] | –ΔH (ITC, 25°C) [kJ/mol] | −TΔS (ITC, 25°C) [kJ/mol] | Kd [1] [nM] | α (relative potency compared to the monovalent compound) | Kd (ITC, rounded value) [nM] | β (relative potency per sugar unit) | binding improvement on multimerisation of tetravalent to hexadecavalent dendrimer (19 versus tetravalent 15) [fold] | binding to LecB in words (abstract)
1 | C[C@@H]1NC(=O)[C@H](CCCCNC(=O)/C=N/O[C@@H]2O[C@@H](C)[C@@H](O)[C@@H](O)[C@@H]2O)NC(=O)CNC(=O)[C@@H]2CCCN2C(=O)[C@H](CCCCNC(=O)/C=N/O[C@@H]2O[C@@H](C)[C@@H](O)[C@@H](O)[C@@H]2O)NC(=O)[C@H](CCCCNC(=O)CO/N=C/C(=O)NCCCC[C@@H]2NC(=O)CNC(=O)[C@@H]3CCCN3C(=O)[C@H](CCCCNC(=O)/C=N/OCC(=O)NCCCC[C@@H]3NC(=O)[C@H](CCCCNC(=O)/C=N/O[C@@H]4O[C@@H](C)[C@@H](O)[C@@H](O)[C@@H]4O)NC(=O)CNC(=O)[C@@H]4CCCN4C(=O)[C@H](CCCCNC(=O)/C=N/O[C@@H]4O[C@@H](C)[C@@H](O)[C@@H](O)[C@@H]4O)NC(=O)[C@H](C)NC(=O)[C@H](CCCCNC(=O)/C=N/O[C@@H]4O[C@@H](C)[C@@H](O)[C@@H](O)[C@@H]4O)NC(=O)CNC(=O)[C@@H]4CCCN4C(=O)[C@H](CCCCNC(=O)/C=N/O[C@@H]4O[C@@H](C)[C@@H](O)[C@@H](O)[C@@H]4O)NC3=O)NC(=O)[C@H](CCCCN)NC(=O)[C@H](CCCCNC(=O)CO/N=C/C(=O)NCCCC[C@@H]3NC(=O)[C@H](CCCCn4cc(CO[C@H]5O[C@H](CO)[C@@H](O)[C@H](O)[C@@H]5O)nn4)NC(=O)CNC(=O)[C@@H]4CCCN4C(=O)[C@H](CCCCn4cc(CO[C@H]5O[C@H](CO)[C@@H](O)[C@H](O)[C@@H]5O)nn4)NC(=O)[C@H](C)NC(=O)[C@H](CCCCn4cc(CO[C@H]5O[C@H](CO)[C@@H](O)[C@H](O)[C@@H]5O)nn4)NC(=O)CNC(=O)[C@@H]4CCCN4C(=O)[C@H](CCCCn4cc(CO[C@H]5O[C@H](CO)[C@@H](O)[C@H](O)[C@@H]5O)nn4)NC3=O)NC(=O)CNC(=O)[C@@H]3CCCN3C(=O)[C@H](CCCCNC(=O)CO/N=C/C(=O)NCCCC[C@@H]3NC(=O)[C@H](CCCCn4cc(CO[C@H]5O[C@H](CO)[C@@H](O)[C@H](O)[C@@H]5O)nn4)NC(=O)CNC(=O)[C@@H]4CCCN4C(=O)[C@H](CCCCn4cc(CO[C@H]5O[C@H](CO)[C@@H](O)[C@H](O)[C@@H]5O)nn4)NC(=O)[C@H](C)NC(=O)[C@H](CCCCn4cc(CO[C@H]5O[C@H](CO)[C@@H](O)[C@H](O)[C@@H]5O)nn4)NC(=O)CNC(=O)[C@@H]4CCCN4C(=O)[C@H](CCCCn4cc(CO[C@H]5O[C@H](CO)[C@@H](O)[C@H](O)[C@@H]5O)nn4)NC3=O)NC(=O)[C@H](C)NC2=O)NC(=O)[C@H](CCCCNC(=O)/C=N/O[C@@H]2O[C@@H](C)[C@@H](O)[C@@H](O)[C@@H]2O)NC(=O)CNC(=O)[C@@H]2CCCN2C(=O)[C@H](CCCCNC(=O)/C=N/O[C@@H]2O[C@@H](C)[C@@H](O)[C@@H](O)[C@@H]2O)NC1=O [Compound 12] | 212 | 0.08 | 40.4 | 211.0 ± 3 | 170.6 | 85 ± 16 | 5.1 | – | – | – | –
2 | C[C@@H]1NC(=O)[C@H](CCCCn2cc(CO[C@@H]3O[C@@H](C)[C@@H](O)[C@@H](O)[C@@H]3O)nn2)NC(=O)CNC(=O)[C@@H]2CCCN2C(=O)[C@H](CCCCn2cc(CO[C@@H]3O[C@@H](C)[C@@H](O)[C@@H](O)[C@@H]3O)nn2)NC(=O)[C@H](CCCCN)NC(=O)[C@H](CCCCn2cc(CO[C@@H]3O[C@@H](C)[C@@H](O)[C@@H](O)[C@@H]3O)nn2)NC(=O)CNC(=O)[C@@H]2CCCN2C(=O)[C@H](CCCCn2cc(CO[C@@H]3O[C@@H](C)[C@@H](O)[C@@H](O)[C@@H]3O)nn2)NC1=O [Compound 16] | – | 0.19 | 36.8 | 119.5 ± 1 | 82.8 | 367 ± 26 | 1.2 | 300 | 0.3 | – | –
3 | C[C@@H]1NC(=O)[C@H](CCCCNC(=O)/C=N/OCC(=O)NCCCC[C@@H]2NC(=O)[C@H](CCCCNC(=O)/C=N/O[C@@H]3O[C@@H](C)[C@@H](O)[C@@H](O)[C@@H]3O)NC(=O)CNC(=O)[C@@H]3CCCN3C(=O)[C@H](CCCCNC(=O)/C=N/O[C@@H]3O[C@@H](C)[C@@H](O)[C@@H](O)[C@@H]3O)NC(=O)[C@H](C)NC(=O)[C@H](CCCCNC(=O)/C=N/O[C@@H]3O[C@@H](C)[C@@H](O)[C@@H](O)[C@@H]3O)NC(=O)CNC(=O)[C@@H]3CCCN3C(=O)[C@H](CCCCNC(=O)/C=N/O[C@@H]3O[C@@H](C)[C@@H](O)[C@@H](O)[C@@H]3O)NC2=O)NC(=O)CNC(=O)[C@@H]2CCCN2C(=O)[C@H](CCCCNC(=O)/C=N/OCC(=O)NCCCC[C@@H]2NC(=O)[C@H](CCCCNC(=O)/C=N/O[C@@H]3O[C@@H](C)[C@@H](O)[C@@H](O)[C@@H]3O)NC(=O)CNC(=O)[C@@H]3CCCN3C(=O)[C@H](CCCCNC(=O)/C=N/O[C@@H]3O[C@@H](C)[C@@H](O)[C@@H](O)[C@@H]3O)NC(=O)[C@H](C)NC(=O)[C@H](CCCCNC(=O)/C=N/O[C@@H]3O[C@@H](C)[C@@H](O)[C@@H](O)[C@@H]3O)NC(=O)CNC(=O)[C@@H]3CCCN3C(=O)[C@H](CCCCNC(=O)/C=N/O[C@@H]3O[C@@H](C)[C@@H](O)[C@@H](O)[C@@H]3O)NC2=O)NC(=O)[C@H](CCCCN)NC(=O)[C@H](CCCCNC(=O)/C=N/OCC(=O)NCCCC[C@@H]2NC(=O)[C@H](CCCCNC(=O)/C=N/O[C@@H]3O[C@@H](C)[C@@H](O)[C@@H](O)[C@@H]3O)NC(=O)CNC(=O)[C@@H]3CCCN3C(=O)[C@H](CCCCNC(=O)/C=N/O[C@@H]3O[C@@H](C)[C@@H](O)[C@@H](O)[C@@H]3O)NC(=O)[C@H](C)NC(=O)[C@H](CCCCNC(=O)/C=N/O[C@@H]3O[C@@H](C)[C@@H](O)[C@@H](O)[C@@H]3O)NC(=O)CNC(=O)[C@@H]3CCCN3C(=O)[C@H](CCCCNC(=O)/C=N/O[C@@H]3O[C@@H](C)[C@@H](O)[C@@H](O)[C@@H]3O)NC2=O)NC(=O)CNC(=O)[C@@H]2CCCN2C(=O)[C@H](CCCCNC(=O)/C=N/OCC(=O)NCCCC[C@@H]2NC(=O)[C@H](CCCCNC(=O)/C=N/O[C@@H]3O[C@@H](C)[C@@H](O)[C@@H](O)[C@@H]3O)NC(=O)CNC(=O)[C@@H]3CCCN3C(=O)[C@H](CCCCNC(=O)/C=N/O[C@@H]3O[C@@H](C)[C@@H](O)[C@@H](O)[C@@H]3O)NC(=O)[C@H](C)NC(=O)[C@H](CCCCNC(=O)/C=N/O[C@@H]3O[C@@H](C)[C@@H](O)[C@@H](O)[C@@H]3O)NC(=O)CNC(=O)[C@@H]3CCCN3C(=O)[C@H](CCCCNC(=O)/C=N/O[C@@H]3O[C@@H](C)[C@@H](O)[C@@H](O)[C@@H]3O)NC2=O)NC1=O [Compound 19] | – | 0.06 | 42.0 | 321.0 ± 14 | 279.0 | 44 ± 5 | 9.8 | – | 0.6 | 10 | nanomolar affinity
